test system: central benzodiazepine receptors; experiment: Central benzodiazepine receptor binding (test of Speth et al.); conditions: 1000 nM of the compound
Procedure: Compounds of the invention were assessed for their binding to the benzodiazepine receptor by the test of Speth et al. [Life Sci. 24, 351 (1979)] for central benzodiazepine receptors and LeFur et al. [Life Sci. 33, 449 (1983)] for peripheral receptors. The compounds were tested first at 1.0E-09, 1.0E-07 and 1.0E-05 M in single determination. […] The specific ligand binding to the receptor is defined as the difference between the total binding and the nonspecific binding determined in the presence of an excess of unlabelled ligand. In each experiment, the respective reference compound was tested concurrently with the test compounds in order to assess the assay suitability. It was tested at several concentrations (for IC50 value determination), and the data were compared with historical values. The assay was rendered valid if suitability criteria were met.
BZD central binding data for the compounds is provided in Table 3, wherein is provided the percent inhibition of central BZD in the presence of 1000 nM of the compound.

| Compound | % Inhibition at 1000 nM for CBZD |
| --- | --- |
| Cc1cccc(=O)n1Cc1c(-c2ccc(Cl)cc2)nc2ccc(Cl)cn12 [Compound 107, 1-((6-chloro-2-(4-chlorophenyl)H-imidazo[1,2-a]pyridin-3-yl)methyl)-6-methylpyridin-2(1H)-one] | ++ (percentage of inhibition of central BZD site binding is greater than 80% in the presence of 1000 nM of the compound) |
| O=c1ccc(Cl)cn1Cc1c(-c2ccc(Cl)cc2)nc2ccc(Cl)cn12 [Compound 108, 5-chloro-1-((6-chloro-2-(4-chlorophenyl)H-imidazo[1,2-a]pyridin-3-yl)methyl)pyridin-2(1H)-one] | ++ (percentage of inhibition of central BZD site binding is greater than 80% in the presence of 1000 nM of the compound) |
| Cc1cccn(Cc2c(-c3ccc(Cl)cc3)nc3ccc(Cl)cn23)c1=O [Compound 109, 1-((6-chloro-2-(4-chlorophenyl)H-imidazo[1,2-a]pyridin-3-yl)methyl)-3-methylpyridin-2(1H)-one] | ++ (percentage of inhibition of central BZD site binding is greater than 80% in the presence of 1000 nM of the compound) |
| O=C1OCCN1Cc1c(-c2ccc(Cl)cc2)nc2ccc(Cl)cn12 [Compound 111, 3-((6-chloro-2-(4-chlorophenyl)H-imidazo[1,2-a]pyridin-3-yl)methyl)oxazolidin-2-one] | ++ (percentage of inhibition of central BZD site binding is greater than 80% in the presence of 1000 nM of the compound) |
| O=C1CCCN1Cc1c(-c2ccc(Cl)cc2)nc2ccc(Cl)cn12 [Compound 112, 1-((6-chloro-2-(4-chlorophenyl)H-imidazo[1,2-a]pyridin-3-yl)methyl)pyrrolidin-2-one] | ++ (percentage of inhibition of central BZD site binding is greater than 80% in the presence of 1000 nM of the compound) |
| O=C1CCN1Cc1c(-c2ccc(Cl)cc2)nc2ccc(Cl)cn12 [Compound 113, 1-[6-Chloro-2-(4-chloro-phenyl)-imidazo[1,2-a]pyridin-3-ylmethyl]-azetidin-2-one] | ++ (percentage of inhibition of central BZD site binding is greater than 80% in the presence of 1000 nM of the compound) |
| Cc1ccc(-c2nc3c(Cl)cc(Cl)cn3c2CN2CCCC2=O)cc1 [Compound 116, 1-(6,8-Dichloro-2-p-tolyl-imidazo[1,2-a]pyridin-3-ylmethyl)-pyrrolidin-2-one] | ++ (percentage of inhibition of central BZD site binding is greater than 80% in the presence of 1000 nM of the compound) |
| Cc1ccc(-c2nc3c(Cl)cc(Cl)cn3c2Cn2nc(C)ccc2=O)cc1 [Compound 117, 2-(6,8-Dichloro-2-p-tolyl-imidazo[1,2-a]pyridin-3-ylmethyl)-6-methyl-2H-pyridazin-3-one] | ++ (percentage of inhibition of central BZD site binding is greater than 80% in the presence of 1000 nM of the compound) |
| O=c1ccccn1Cc1c(-c2ccc(Cl)cc2)nc2ccc(F)cn12 [Compound 122, 1-((2-(4-chlorophenyl)-6-fluoroimidazo[1,2-a]pyridin-3-yl)methyl)pyridin-2(1H)-one] | ++ (percentage of inhibition of central BZD site binding is greater than 80% in the presence of 1000 nM of the compound) |
| O=C1COc2ccccc2N1Cc1c(-c2ccc(Cl)cc2)nc2ccccn12 [Compound 124, 4-((2-(4-chlorophenyl)imidazo[1,2-a]pyridin-3-yl)methyl)-2H-benzo[b][1,4]oxazin-3(4H)-one] | ++ (percentage of inhibition of central BZD site binding is greater than 80% in the presence of 1000 nM of the compound) |
| CCOC(=O)c1cn(Cc2c(-c3ccc(Cl)cc3)nc3ccccn23)c(=O)[nH]c1=O [Compound 126, Ethyl 1-((2-(4-chlorophenyl)imidazo[1,2-a]pyridin-3-yl)methyl)-2,4-dioxo-1,2,3,4-tetrahydropyrimidine-5-carboxylate] | − (percentage of inhibition of central BZD site binding is less than 50% in the presence of 1000 nM of the compound) |
| CSc1nsc(=S)n1Cc1c(-c2ccc(C)cc2)nc2ccc(C)cn12 [Compound 129, 3-Methylsulfanyl-4-(6-methyl-2-p-tolyl-imidazo[1,2-a]pyridin-3-ylmethyl)-4H-[1,2,4]thiadiazole-5-thione] | ++ (percentage of inhibition of central BZD site binding is greater than 80% in the presence of 1000 nM of the compound) |
| Cc1ccc(-c2nc3ccc(C)cn3c2Cn2c(C)c(C)sc2=S)cc1 [Compound 130, 4,5-Dimethyl-3-(6-methyl-2-p-tolyl-imidazo[1,2-a]pyridin-3-ylmethyl)-3H-thiazole-2-thione] | ++ (percentage of inhibition of central BZD site binding is greater than 80% in the presence of 1000 nM of the compound) |
| Cc1ccc(-c2nc3ccc(C)cn3c2Cn2ccsc2=S)cc1 [Compound 131, 3-((6-Methyl-2-p-tolylH-imidazo[1,2-a]pyridin-3-yl)methyl)thiazole-2(3H)-thione] | ++ (percentage of inhibition of central BZD site binding is greater than 80% in the presence of 1000 nM of the compound) |
| CCNc1ccn(Cc2c(-c3ccc(Cl)cc3)nc3ccccn23)c(=O)n1 [Compound 132, 1-((2-(4-chlorophenyl)imidazo[1,2-a]pyridin-3-yl)methyl)-4-(ethylamino)pyrimidin-2(1H)-one] | ++ (percentage of inhibition of central BZD site binding is greater than 80% in the presence of 1000 nM of the compound) |
| CN(C)CCNc1ccn(Cc2c(-c3ccc(Cl)cc3)nc3ccccn23)c(=O)n1 [Compound 134, 1-((2-(4-chlorophenyl)imidazo[1,2-a]pyridin-3-yl)methyl)-4-(2-(dimethylamino)ethylamino)pyrimidin-2(1H)-one] | ++ (percentage of inhibition of central BZD site binding is greater than 80% in the presence of 1000 nM of the compound) |
| Cc1ccc(-c2nc3ccc(C)cn3c2CNc2ccccn2)cc1 [Compound 140, N-((6-methyl-2-p-tolylH-imidazo[1,2-a]pyridin-3-yl)methyl)pyridin-2-amine] | ++ (percentage of inhibition of central BZD site binding is greater than 80% in the presence of 1000 nM of the compound) |
| Cc1ccc(-c2nc3ccc(C)cn3c2CNc2nccc(C)n2)cc1 [Compound 143, 4-methyl-N-((6-methyl-2-p-tolylH-imidazo[1,2-a]pyridin-3-yl)methyl)pyrimidin-2-amine] | ++ (percentage of inhibition of central BZD site binding is greater than 80% in the presence of 1000 nM of the compound) |
| Cc1ccc(-c2nc3ccc(C)cn3c2CNc2cnccn2)cc1 [Compound 144, N-((6-methyl-2-p-tolylH-imidazo[1,2-a]pyridin-3-yl)methyl)pyrazin-2-amine] | ++ (percentage of inhibition of central BZD site binding is greater than 80% in the presence of 1000 nM of the compound) |
| Cc1ccc(-c2nc3ccc(C)cn3c2CNc2ncncn2)cc1 [Compound 146, (6-Methyl-2-p-tolyl-imidazo[1,2-a]pyridin-3-ylmethyl)-[1,3,5]triazin-2-yl-amine] | ++ (percentage of inhibition of central BZD site binding is greater than 80% in the presence of 1000 nM of the compound) |
| Cc1ccc(-c2nc3ccc(C)cn3c2CNc2nc(C)cc(C)n2)cc1 [Compound 148, 4,6-dimethyl-N-((6-methyl-2-p-tolylH-imidazo[1,2-a]pyridin-3-yl)methyl)pyrimidin-2-amine] | ++ (percentage of inhibition of central BZD site binding is greater than 80% in the presence of 1000 nM of the compound) |
| Cc1ccc(-c2nc3ccc(C)cn3c2CNc2ccon2)cc1 [Compound 149, N-((6-methyl-2-p-tolylH-imidazo[1,2-a]pyridin-3-yl)methyl)isoxazole-3-amine] | ++ (percentage of inhibition of central BZD site binding is greater than 80% in the presence of 1000 nM of the compound) |
| Cc1ccc(-c2nc3ccc(C)cn3c2CNc2cc(C)ns2)cc1 [Compound 151, 3-methyl-N-((6-methyl-2-p-tolylH-imidazo[1,2-a]pyridin-3-yl)methyl)isothiazol-5-amine] | ++ (percentage of inhibition of central BZD site binding is greater than 80% in the presence of 1000 nM of the compound) |
| Cc1ccc(-c2nc3ccc(C)cn3c2CNn2cnnc2)cc1 [Compound 152, (6-methyl-2-p-tolylH-imidazo[1,2-a]pyridin-3-yl)-N-(4H-1,2,4-triazol-4-yl)methanamine] | + (percentage of inhibition of central BZD site binding is greater than 50% but less than 80% in the presence of 1000 nM of the compound) |
| Cc1ccc(-c2nc3ccc(C)cn3c2CNc2ncc[nH]2)cc1 [Compound 153, N-((6-methyl-2-p-tolyl-H-imidazo[1,2-a]pyridin-3-yl)methyl)-1H-imidazol-2-amine] | ++ (percentage of inhibition of central BZD site binding is greater than 80% in the presence of 1000 nM of the compound) |
| Cc1ccc(-c2nc3ccc(C)cn3c2CNc2nc3ccccc3n2C)cc1 [Compound 154, 1-methyl-N-((6-methyl-2-p-tolylH-imidazo[1,2-a]pyridin-3-yl)methyl)-1H-benzo[d]imidazol-2-amine] | ++ (percentage of inhibition of central BZD site binding is greater than 80% in the presence of 1000 nM of the compound) |
| Cc1ccc(-c2nc3ccc(C)cn3c2CNn2c(C)nc3ccccc3c2=O)cc1 [Compound 155, 2-Methyl-3-[(6-methyl-2-p-tolyl-imidazo[1,2-a]pyridin-3-ylmethyl)-amino]-3H-quinazolin-4-one] | + (percentage of inhibition of central BZD site binding is greater than 50% but less than 80% in the presence of 1000 nM of the compound) |

From patent publication US8497278B2, “Imidazo[1,2-a]pyridine compounds” (priority 2008, dated 2013)
